As usually defined, the IC50 is the midpoint of a concentration-inhibition curve.

Read-outs that look alike come from different tables or passages of the source.

The target in experiment [1] is 363 human kinases (including Aurora A/B/C) (Homo sapiens, UniProt O95819). Nature of the experiment: biochemical. The class given is biochemical. Particulars: HGK/MAP4K4; for remaining activity at 0.1 µM: 100 nM; for remaining activity at 0.1 µM / remaining activity at 0.5 µM: read-out: % Enzyme Activity (relative to DMSO controls).
Source text: (§1) However, the Aurora A/B selectivity ratios derived from our in vitro and in vivo data can be compared to prioritize inhibitors.
For experiment [2], the target named is T1, 363 human kinases (including Aurora A/B/C) (Homo sapiens, UniProt Q8TD19).
T1 sequence (Q8TD19 1-979): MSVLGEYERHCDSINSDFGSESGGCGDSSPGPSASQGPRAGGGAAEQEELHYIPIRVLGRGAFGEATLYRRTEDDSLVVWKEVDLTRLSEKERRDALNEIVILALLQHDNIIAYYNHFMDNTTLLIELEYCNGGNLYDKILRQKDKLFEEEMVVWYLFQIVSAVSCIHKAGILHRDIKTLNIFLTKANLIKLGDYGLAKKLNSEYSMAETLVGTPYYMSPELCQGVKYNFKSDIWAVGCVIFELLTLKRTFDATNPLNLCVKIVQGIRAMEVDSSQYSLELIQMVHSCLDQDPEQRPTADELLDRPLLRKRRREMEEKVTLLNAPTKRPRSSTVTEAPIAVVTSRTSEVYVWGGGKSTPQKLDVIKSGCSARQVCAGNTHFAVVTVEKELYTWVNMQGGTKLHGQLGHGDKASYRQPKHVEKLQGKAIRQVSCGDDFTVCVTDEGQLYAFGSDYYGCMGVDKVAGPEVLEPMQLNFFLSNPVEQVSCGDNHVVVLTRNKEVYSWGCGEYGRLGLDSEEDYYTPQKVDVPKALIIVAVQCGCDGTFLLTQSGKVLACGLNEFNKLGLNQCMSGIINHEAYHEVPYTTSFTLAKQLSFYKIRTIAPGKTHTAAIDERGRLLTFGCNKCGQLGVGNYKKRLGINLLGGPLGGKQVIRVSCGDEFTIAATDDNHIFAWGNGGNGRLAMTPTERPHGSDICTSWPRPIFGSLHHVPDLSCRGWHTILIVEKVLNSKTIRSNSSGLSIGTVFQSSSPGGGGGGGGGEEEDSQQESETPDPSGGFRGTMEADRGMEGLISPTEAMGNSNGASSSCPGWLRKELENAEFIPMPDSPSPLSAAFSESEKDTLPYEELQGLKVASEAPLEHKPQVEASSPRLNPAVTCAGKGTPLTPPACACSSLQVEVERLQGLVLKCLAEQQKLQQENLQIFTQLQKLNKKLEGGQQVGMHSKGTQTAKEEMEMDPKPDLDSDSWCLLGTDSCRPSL
Nature of the experiment: biochemical. The settings on record: NEK9; for remaining activity at 0.1 µM: 100 nM; for remaining activity at 0.1 µM / remaining activity at 0.5 µM: read-out: % Enzyme Activity (relative to DMSO controls). The class given is biochemical.
Source text: as §1

The target in experiment [3] is T2, 363 human kinases (including Aurora A/B/C) (Homo sapiens, UniProt P51813).
T2 sequence (P51813 1-675): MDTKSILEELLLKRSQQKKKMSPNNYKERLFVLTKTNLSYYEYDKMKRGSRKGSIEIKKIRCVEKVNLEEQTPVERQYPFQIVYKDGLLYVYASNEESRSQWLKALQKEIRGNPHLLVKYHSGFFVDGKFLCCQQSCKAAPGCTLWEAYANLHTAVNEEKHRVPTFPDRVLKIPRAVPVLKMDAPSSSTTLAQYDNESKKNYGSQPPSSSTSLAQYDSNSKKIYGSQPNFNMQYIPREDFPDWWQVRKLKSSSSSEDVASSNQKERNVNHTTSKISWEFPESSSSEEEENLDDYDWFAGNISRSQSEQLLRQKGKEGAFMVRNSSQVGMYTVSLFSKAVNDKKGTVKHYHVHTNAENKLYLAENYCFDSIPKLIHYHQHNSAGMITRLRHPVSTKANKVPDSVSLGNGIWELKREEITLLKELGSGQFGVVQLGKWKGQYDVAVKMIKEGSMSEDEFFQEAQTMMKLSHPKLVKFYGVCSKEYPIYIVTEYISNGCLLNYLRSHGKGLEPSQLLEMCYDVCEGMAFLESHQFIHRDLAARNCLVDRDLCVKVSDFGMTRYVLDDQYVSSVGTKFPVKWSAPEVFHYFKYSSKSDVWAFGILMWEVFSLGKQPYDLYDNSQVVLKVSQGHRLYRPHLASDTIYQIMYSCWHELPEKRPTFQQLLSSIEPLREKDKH
Put plainly: biochemical. It counts as biochemical. The settings on record: BMX/ETK, [ATP] 50 µM; for remaining activity at 0.1 µM: 100 nM; for remaining activity at 0.1 µM / remaining activity at 0.5 µM: read-out: % Enzyme Activity (relative to DMSO controls).
Source text: as §1

The target in experiment [4] is 363 human kinases (including Aurora A/B/C) (Homo sapiens, UniProt Q8IY84). Nature of the experiment: biochemical. The class given is biochemical. Particulars: NIM1; for remaining activity at 0.1 µM: 100 nM; for remaining activity at 0.1 µM / remaining activity at 0.5 µM: read-out: % Enzyme Activity (relative to DMSO controls).
Source text: as §1
The target of experiment [5] is T3, 363 human kinases (including Aurora A/B/C) (Homo sapiens, UniProt P41743).
T3 sequence (P41743 1-596): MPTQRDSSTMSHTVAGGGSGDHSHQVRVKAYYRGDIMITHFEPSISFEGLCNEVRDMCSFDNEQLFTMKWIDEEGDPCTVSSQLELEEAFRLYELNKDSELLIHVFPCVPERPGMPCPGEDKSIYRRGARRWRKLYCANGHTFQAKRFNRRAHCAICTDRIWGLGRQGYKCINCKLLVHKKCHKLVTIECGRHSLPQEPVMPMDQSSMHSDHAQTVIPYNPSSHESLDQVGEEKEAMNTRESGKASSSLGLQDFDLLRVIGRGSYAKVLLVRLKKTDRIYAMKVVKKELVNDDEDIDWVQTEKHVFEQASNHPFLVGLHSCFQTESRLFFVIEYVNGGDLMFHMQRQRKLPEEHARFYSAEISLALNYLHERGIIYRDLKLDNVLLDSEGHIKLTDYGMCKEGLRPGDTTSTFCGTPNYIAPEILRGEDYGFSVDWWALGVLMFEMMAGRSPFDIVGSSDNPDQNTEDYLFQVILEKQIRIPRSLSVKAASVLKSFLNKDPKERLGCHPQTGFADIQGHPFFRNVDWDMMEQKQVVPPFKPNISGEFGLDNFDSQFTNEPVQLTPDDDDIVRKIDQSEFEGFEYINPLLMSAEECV
Nature of the experiment: biochemical. The class given is biochemical. The settings on record: PKCiota; for remaining activity at 0.1 µM: 100 nM; for remaining activity at 0.1 µM / remaining activity at 0.5 µM: read-out: % Enzyme Activity (relative to DMSO controls).
Source text: as §1

Experiment [6] deals with pH3(Ser 28) in RPE1 cells. Put plainly: Substrate phosphorylation immunofluorescence assay, pH3(Ser 28), RPE1. The class given is cell-based, human.
Procedure: Asynchronous cells were incubated with vehicle (DMSO) or different inhibitor doses for 8 h and then fixed and labeled with a mixture of three antibodies directed against pLATS2(Ser 83), pH3(Ser 28), and MPM2 [which detects mitotic phosphoepitopes; ([86])]. While both the anti-pLATS2(Ser 83) and MPM2 antibodies are mouse monoclonals, they are of different IgG subclasses [IgG2b for anti-pLATS2(Ser 83) and IgG1 for MPM2], and can thus be detected with subclass-specific secondary antibodies (Table S3 in Supplementary Material).
Cells were imaged in 4 channels to visualize pLATS2(Ser 83), pH3(Ser 28), MPM2, and DNA (labeled with Hoechst) and mitotic cells were segmented based on their bright MPM2 labeling (Figure 3E). Intensity and area thresholds were set to select the pLATS2(Ser 83) foci and the pH3(Ser 28)-labeled chromatin in their respective channels in DMSO-treated control cells and the same thresholds were applied for inhibitor-treated cells. The mean fluorescence intensity per pixel was measured to assess the activities of the kinases targeting these two substrate phosphorylation sites.
After 8 h cells were fixed with 4% PFA for 20 min at room temperature. The fixed cells were washed with PBS. For immunostaining, cells were permeabilized and blocked with PBS containing 10% normal donkey serum (Jackson ImmunoResearch) and 0.1% Triton-X100 for 1 h at room temperature. Primary antibodies against phospho-LATS2 (Ser 83), phospho-histone H3(Ser 28), and anti-phospho-MPM2 (see Table S3 in Supplementary Material) were incubated for 1 h at room temperature. […] Cells were then washed twice with PBS containing 0.1% Triton-X100. […] Fifty fields per well were imaged with quadruplicate wells for each condition. Image analysis was done using the CV7000 image analysis software (Yokogawa Electric Corporation). Between 100 and 1,000 mitotic cells per condition were segmented applying object identification parameters to select for bright MPM2 labeling. Using a nuclear identifier protocol, minimum intensity thresholds were set for pLATS2(Ser 83) and the pH3(Ser 28) signals, and the resulting identified objects were eroded, dilated, and filtered for size by user-defined thresholds. […] The same thresholds were applied for all of the inhibitor-treated samples, which were processed, imaged, and analyzed in parallel with control DMSO-treated cells. Data were fit using a four-parameter, variable slope fit in Prism (GraphPad).
For experiment [7], the system named is pAuroraA(Thr 288) in HeLa cells. Put plainly: Immunoblotting of Aurora A activation loop phosphorylation. It counts as cell-based, human. The settings on record: for Effect on pAuroraA(Thr 288): dose–response; for IC50: Homo sapiens, read-out: IC50 pAuroraA(Thr 288). (In general: Immunoblotting shows a protein as a band on a membrane.)

Sequence of 363 human kinases (including Aurora A/B/C) (Homo sapiens, UniProt Q8IY84) (Q8IY84 whole entry): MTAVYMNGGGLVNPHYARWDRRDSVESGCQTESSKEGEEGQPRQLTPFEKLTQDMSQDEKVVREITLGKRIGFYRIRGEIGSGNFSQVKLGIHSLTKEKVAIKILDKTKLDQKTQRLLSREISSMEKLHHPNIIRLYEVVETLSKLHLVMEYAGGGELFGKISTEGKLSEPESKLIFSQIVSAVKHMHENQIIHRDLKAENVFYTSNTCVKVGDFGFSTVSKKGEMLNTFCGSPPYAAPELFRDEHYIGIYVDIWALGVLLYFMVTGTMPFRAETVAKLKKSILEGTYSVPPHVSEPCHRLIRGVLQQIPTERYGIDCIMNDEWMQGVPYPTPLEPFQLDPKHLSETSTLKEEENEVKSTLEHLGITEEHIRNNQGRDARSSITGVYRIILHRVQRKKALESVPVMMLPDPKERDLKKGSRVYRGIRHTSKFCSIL
Sequence of 363 human kinases (including Aurora A/B/C) (Homo sapiens, UniProt O95819) (O95819 whole entry): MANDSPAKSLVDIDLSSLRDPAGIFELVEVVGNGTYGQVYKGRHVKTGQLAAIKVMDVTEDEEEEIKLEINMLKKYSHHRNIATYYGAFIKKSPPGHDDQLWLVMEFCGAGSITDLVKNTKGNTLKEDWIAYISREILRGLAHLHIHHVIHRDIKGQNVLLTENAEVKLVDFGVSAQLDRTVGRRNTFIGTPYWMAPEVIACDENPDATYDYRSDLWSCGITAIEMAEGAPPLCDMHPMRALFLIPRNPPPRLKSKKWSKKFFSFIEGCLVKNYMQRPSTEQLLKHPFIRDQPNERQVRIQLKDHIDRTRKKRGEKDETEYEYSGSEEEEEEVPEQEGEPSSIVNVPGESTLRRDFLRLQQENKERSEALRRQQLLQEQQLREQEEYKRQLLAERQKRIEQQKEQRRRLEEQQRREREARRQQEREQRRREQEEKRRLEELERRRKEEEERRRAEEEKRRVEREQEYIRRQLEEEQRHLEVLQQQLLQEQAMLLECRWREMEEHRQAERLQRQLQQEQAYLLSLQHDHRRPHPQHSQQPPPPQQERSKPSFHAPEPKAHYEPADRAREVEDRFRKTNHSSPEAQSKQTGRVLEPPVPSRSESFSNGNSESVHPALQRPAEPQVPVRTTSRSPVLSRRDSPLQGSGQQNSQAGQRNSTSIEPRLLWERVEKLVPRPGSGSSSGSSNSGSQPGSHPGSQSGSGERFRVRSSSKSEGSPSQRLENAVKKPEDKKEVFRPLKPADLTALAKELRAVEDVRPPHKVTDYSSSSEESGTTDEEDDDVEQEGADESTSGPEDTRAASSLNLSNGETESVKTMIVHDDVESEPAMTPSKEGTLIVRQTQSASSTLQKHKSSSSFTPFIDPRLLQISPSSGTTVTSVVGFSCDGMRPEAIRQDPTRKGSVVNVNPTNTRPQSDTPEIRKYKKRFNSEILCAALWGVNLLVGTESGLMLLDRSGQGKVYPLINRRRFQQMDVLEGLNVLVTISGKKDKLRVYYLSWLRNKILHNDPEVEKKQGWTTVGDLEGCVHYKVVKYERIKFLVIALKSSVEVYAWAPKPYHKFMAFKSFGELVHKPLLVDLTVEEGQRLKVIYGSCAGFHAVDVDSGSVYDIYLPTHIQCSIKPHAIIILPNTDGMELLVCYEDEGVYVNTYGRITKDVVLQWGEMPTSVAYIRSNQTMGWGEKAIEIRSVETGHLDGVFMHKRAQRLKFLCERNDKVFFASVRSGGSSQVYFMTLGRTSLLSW

`CCn1cc(-c2ccnc3[nH]c(-c4cccc(CN(C)C)c4)cc23)c(-c2ccc(NC(=O)N(C)C)cc2)n1` [GSK1070916]: the remaining activity at 0.1 µM in experiment [1] is 87.5%; in experiment [2] it was 83.8%; in experiment [3], 96.1%; in experiment [4], 94.8%; in experiment [5] it was 99.1%. The half-inhibitory concentration (IC50) in experiment [6] (Homo sapiens, RPE-1, 8 h, read-out: pHistone H3 (Ser28) IC50) worked out at 15 nM. Moreover, in experiment [7] (immunoblot, 300 nM (Figure S6)), the “Effect on Aurora A activity (pAuroraA Thr 288)” value was “inhibited Aurora A activity”. Also, the “Effect on pAuroraA(Thr 288)” value in experiment [7] (immunoblot) is “did not affect”.

Regarding `O=C(O)[C@]1(Cc2cccc(Nc3nccs3)n2)CC[C@@H](Oc2cccc(Cl)c2F)CC1` [MK-5108], the remaining activity at 0.1 µM amounted to 95.5% in experiment [1]; 95.2% in experiment [2]; 48.1% in experiment [3]; 96.8% in experiment [4]; 94.3% in experiment [5]. In addition, the remaining activity at 0.5 µM came out at 72.9% in experiment [1] (500 nM); 60.7% in experiment [2] (500 nM); 14.2% in experiment [3] (500 nM); 96.4% in experiment [4] (500 nM); 102% in experiment [5] (500 nM). The inhibition at 15 µM in experiment [6] (Homo sapiens, RPE-1, read-out: pHistone H3 (Ser28) inhibition at highest concentration tested) turned out to be 80%. In experiment [7], the IC50 is less than 100 nM. In addition, the “Effect on pAuroraA(Thr 288)” value in experiment [7] (immunoblot) is listed as “completely eliminate Thr 288 phosphorylation”.

With `O=C(c1cccc(Cl)c1F)N1CCN(Cc2cccc(Nc3nccs3)n2)CC1` [MK-8745], the “% Enzyme Activity (relative to DMSO controls)” value came to 88.10% in experiment [1] (500 nM); 95.13% in experiment [2] (500 nM); 88.19% in experiment [3] (500 nM); 97.14% in experiment [4] (500 nM); 95.15% in experiment [5] (500 nM). Moreover, the remaining activity at 0.5 µM in experiment [1] (500 nM) amounted to 89.1%; in experiment [2] (500 nM), 96.6%; in experiment [3] (500 nM) it was 90.7%; in experiment [4] (500 nM) it was 97.2%; in experiment [5] (500 nM) it was 98%. Further, the “pHistone H3 (Ser28) IC50” value in experiment [6] (RPE1, 8 h inhibitor treatment) is “NE@15 µM”. Besides, the IC50 in experiment [7] (immunoblot, taxol-arrested mitotic lysates) is less than 100 nM. Besides, in experiment [7] (immunoblot), the “Effect on pAuroraA(Thr 288)” value is given as “completely eliminate Thr 288 phosphorylation”.

These data come from article PMC4685510, “A Cell Biologist’s Field Guide to Aurora Kinase Inhibitors” (Frontiers in Oncology, 2015).
